Experimental data taken from patent publication US20210267992A1, “5-ACETAMIDOMETHYL-OXAZOLIDINONE DERIVATIVES FOR USE IN THE TREATMENT OF CANCER” (Varsity Pharmaceuticals Limited, priority 2018, published 2021).
Entries after “also recorded” stand apart in the source; their conditions may differ.

What was measured:
[1] = system: BRCA1 deficient ovarian cancer cells, UWB1.289; experiment: BrdU proliferation assay, single drugs after cisplatin; assay type: cell-based; settings: cisplatin 1 μM for 24 hours followed by the drug alone for 6 days, result in words
Experimental: (§1) Methods • Cell morphology, viability and proliferation rate was assessed by visual and counting method. • Day 0: Cells were split and around 1000 cells/well were seeded in normal complete media. • Day 1: Cisplatin was added at 1 μM to the test and controls wells. Untreated cells were left as control. • Day 2: medium containing cisplatin was discarded and new fresh media containing bromodeoxyuridine (BrdU) and the drugs at the concentrations shown in table 1, below, was added. • Day 6: medium was discarded, and cells fixed. BrdU assay was performed according to the manufacturer. • Controls comprised cells without BrdU (Blank), untreated cells (UN) and Cisplatin treated cells for 24 hours only (CIS). • All experiments were conducted in triplicate.
(§2) BrdU Proliferation Assay • After 6 days of incubation with drugs, the media was discarded, and cells were fixed for 30 minutes, at room temperature, with FixDenat Solution. • FixDenat Solution was then removed and substituted with Anti-BrdU-POD working solution for 2 hours at room temperature. • Plates were then washed 3 times with Washing buffer. • Substrate solution was added. • The reaction was stopped by adding H2SO4 and immediately read at 450 nm.
Data was analysed using Excel and Prism software. The average of the absorbances and the standard error were calculated using the technical triplicate for each condition.

UWB1.289 cell line = experiment: BrdU proliferation assay, combinations of PARPis and ATR inhibitors after cisplatin; assay type: cell-based; settings: for proliferation in combination with Aurothiomalate (ATM), compared with the gold complex alone: then Aurothiomalate (ATM) plus the labelled drug for 6 days; for proliferation in combination with auranofin, compared with the gold complex alone: then auranofin plus the labelled drug for 6 days
Experimental: as §1, §2
The methods were the same as described in example 1 except that the new fresh media added on day 2 contained bromodeoxyuridine (BrdU) and the drugs at the concentrations shown in table 2, below. All possible combinations of concentrations for compounds A and B were tested.

[2] = system: MDA-MB-436 (BRCA1 mutation) breast cancer cell xenograft; experiment: MDA-MB-436 (BRCA1 mutation) breast cancer cell xenograft experiment; assay type: in vivo; settings: mice, 100 mg/kg BID orally, MDA-MB-436 xenograft
Experimental: The MDA-MB-436 tumour cell line was maintained in vitro as monolayer culture in DMEM medium modified supplemented with 10% heat inactivated foetal bovine serum at 37° C. in an atmosphere of 5% CO2 in air. The tumour cells were routinely sub-cultured once a week by trypsin-EDTA treatment, not to exceed 4-5 passages. The cells growing in an exponential growth phase were harvested and counted for tumour inoculation.
All mice were inoculated subcutaneously on the right flank with MDA-MB-436 tumour cells (1×10^7) in 0.1 ml of DMEM with Matrigel mixture (1:1 ratio) for tumour development. The treatment started when the mean tumour size reached is approximately 100-150 mm^3. Mice were then be assigned to groups such that the mean tumour volume is the same for each treatment group. The treatments were administered to the tumour-bearing mice orally at 12 hour intervals.
560 mg linezolid was dissolved in 1.4 ml ethanol and 12.6 ml PEG400. The solution was vortexed and sonicated with high energy ultrasonic probe to get a uniform solution. The resultant solution was used for 1 day.
The measurement of tumour size was conducted twice weekly with a calliper and recorded. The tumour volume (mm3) was estimated using the formula: TV=a×b^2/2, where “a” and “b” are long and short diameters of a tumour, respectively.

[3] = UWB1.289, cisplatin 1 μM 24 hours, result in words

O=C(O)CC([S-])C(=O)O.[Au+] (stereo not shown) [ATM, Aurothiomalate]
reduction of proliferation of the cancer cells (BrdU absorbance) [1]: effectively reduce proliferation

CC(=O)NC[C@H]1CN(c2ccc(N3CCOCC3)c(F)c2)C(=O)O1 [linezolid]
proliferation in combination with Aurothiomalate (ATM), compared with the gold complex alone (UWB1.289 cell line; [3]): particularly marked improvement over the gold complexes when used alone; also recorded: particularly noticeable synergistic effect | proliferation in combination with auranofin, compared with the gold complex alone (UWB1.289 cell line; [3]): particularly marked improvement over the gold complexes when used alone | synergistic effect on proliferation when used with a PARPi (UWB1.289 cell line; UWB1.289, combination with a PARPi, result in words): synergistic effect | percentage proliferation (UWB1.289 cell line; UWB1.289, linezolid 100 nM together with Aurothiomalate (ATM) 30 nM, after cisplatin 1 μM 24 hours): 2% | proliferation reduction compared with AZD6738 (UWB1.289 cell line; inventors' conclusion, result in words): equivalent to proliferation reduction achieved by AZD6738 | reduction of proliferation of the cancer cells (BrdU absorbance) [1]: reduce proliferation of cancer cells when used alone | reduced tumour size compared to the control group [2]: 38%

C[C@@H]1COCCN1c1cc(C2([S@](C)(=N)=O)CC2)nc(-c2cc[nH]c3nccc2-3)n1 [AZD, AZD6738]
proliferation in combination with Aurothiomalate (ATM), compared with the gold complex alone (UWB1.289 cell line; [3]): particularly marked improvement over the gold complexes when used alone | proliferation in combination with auranofin, compared with the gold complex alone (UWB1.289 cell line; [3]): particularly marked improvement over the gold complexes when used alone | proliferation in combination with olaparib, compared with olaparib alone (UWB1.289 cell line; UWB1.289, cisplatin 1 μM 24 hours, then olaparib plus the labelled drug for 6 days, result in words): further decreased proliferation when compared to the degree of proliferation observed for olaparib alone

CNCc1ccc(-c2[nH]c3cc(F)cc4c3c2CCNC4=O)cc1 [rucaparib]
reduction of proliferation of the cancer cells (BrdU absorbance) [1]: effectively reduce proliferation

OC[C@H]1O[C@H]([S-])[C@H](O)[C@@H](O)[C@@H]1O.[Au+] [ATG, Aurothioglucose]
reduction of proliferation of the cancer cells (BrdU absorbance) [1]: effectively reduce proliferation

O=C(c1cc(Cc2n[nH]c(=O)c3ccccc23)ccc1F)N1CCN(C(=O)C2CC2)CC1 [Olaparib]
reduction of proliferation of the cancer cells (BrdU absorbance) [1]: effectively reduce proliferation

NC(=O)c1cccc2cn(-c3ccc([C@@H]4CCCNC4)cc3)nc12 [niraparib]
reduction of proliferation of the cancer cells (BrdU absorbance) [1]: effectively reduce proliferation

CC(=O)OC[C@H]1O[C@@H]([S-])[C@H](OC(C)=O)[C@@H](OC(C)=O)[C@@H]1OC(C)=O.CCP(CC)CC.[Au+] [auranofin]
reduction of proliferation of the cancer cells (BrdU absorbance) [1]: effectively reduce proliferation
